Measurements from US20220017877A1, “BILIRUBIN OXIDASE ACTIVITY IMPROVING METHOD, AND BILIRUBIN OXIDASE PRODUCT” (OZEKI CORPORATION, priority 2018, published 2022).

Target: T1, recombinant BOD (bilirubin oxidase) derived from Myrothecium verrucaria MT-1 (Albifimbria verrucaria, UniProt Q12737)
T1 construct: made in house; host or cells: Aspergillus sp
T1 sequence (Q12737 39-572): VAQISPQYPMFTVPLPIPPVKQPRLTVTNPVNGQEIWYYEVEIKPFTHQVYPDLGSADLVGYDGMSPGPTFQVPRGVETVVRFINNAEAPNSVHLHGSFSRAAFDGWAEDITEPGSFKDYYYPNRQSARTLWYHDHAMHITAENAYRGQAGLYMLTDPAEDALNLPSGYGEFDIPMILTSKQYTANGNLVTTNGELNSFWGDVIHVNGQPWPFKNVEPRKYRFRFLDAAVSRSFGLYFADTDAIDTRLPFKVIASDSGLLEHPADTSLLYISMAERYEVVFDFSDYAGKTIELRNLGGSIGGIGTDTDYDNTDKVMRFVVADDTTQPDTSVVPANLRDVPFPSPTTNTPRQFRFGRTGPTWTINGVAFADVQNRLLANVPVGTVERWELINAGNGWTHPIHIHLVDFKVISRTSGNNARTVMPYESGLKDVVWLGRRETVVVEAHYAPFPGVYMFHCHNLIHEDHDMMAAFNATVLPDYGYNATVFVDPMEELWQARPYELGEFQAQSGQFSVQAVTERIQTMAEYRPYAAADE
Assay: BOD activity after leaving the BOD solution with an activity improving agent or comparative substance at 30° C. in a deoxygenated atmosphere (Test Example 1)
Type: biochemical
Conditions: relative to Day 0, additive concentration as in Table 1; for Activity (%) Day 47: left 47 days at 30° C.
Protocol: A BOD solution, which contains: a BOD; and the present activity improving agent or a comparative substance, was left in an environment at a temperature of 30° C. in a deoxygenated atmosphere for a certain period of time. After the BOD solution was left as above, improvement of the BOD activity by the present activity improving method was evaluated by measurement of the BOD activity.
In Test Example 1, a BOD gene derived from a Myrothecium verrucaria MT-1 (GenBank accession number: D12579.1) was introduced into an Aspergillus sp., and then a recombinant BOD (hereinafter, also referred to simply as “BOD”) expressed in the Aspergillus sp. was purified by using a well-known technique and then used as the BOD. The BOD gene derived from the Myrothecium verrucaria MT-1 was codon-optimized in accordance with a gene sequence of the Aspergillus sp., and then introduced into the Aspergillus sp. Further, the BOD thus purified was dissolved in a 50 mM glycine-KOH (pH 8.5) buffer so that the concentration of the BOD became 1.0 mg/mL. Then, a resultant solution was used as a BOD enzyme solution.
The enzymatic activity of the BOD was measured as follows. To 1780 μL of a 50 mM potassium phosphate buffer (pH 6.5), 200 μL of a 20 mM ABTS substrate solution was added, so that a mixed solution (1980 μL) was prepared. This mixed solution was incubated for 1 min at 37° C. Thereafter, 20 μL of a solution containing the BOD (specifically, a BOD solution for evaluation, which will be described later) was added to the mixed solution, and a resultant mixed solution (2 mL) was incubated at 37° C. While the mixed solution was incubated, the absorbance of the mixed solution at a wavelength of 436 nm was measured immediately after that addition of the BOD solution for evaluation (at 0 seconds) and thereafter every 20 seconds. On the basis of (i) the absorbance of the mixed solution at a wavelength of 436 nm immediately after the addition of the BOD solution for evaluation and (ii) the absorbance of the mixed solution at a wavelength of 436 nm after a lapse of 1 minute from the addition of the BOD solution for evaluation, calculation was carried out for obtaining an increase rate per minute of the absorbance of the mixed solution at a wavelength of 436 nm after the addition of the BOD solution for evaluation. The BOD activity (unit) in the BOD solution for evaluation was calculated from the increase rate. In the present specification, the amount of enzyme for oxidizing 1 μmol of ABTS per minute was defined as one unit.
A specific test method of Test Example 1 is as follows. To a BOD enzyme solution containing a BOD, one of the above-described present activity improving agents was added, so that a BOD solution (which is the BOD solution according to an embodiment of the present invention) was prepared. Further, one of the above-described comparative substances was added to the BOD enzyme solution, so that another BOD solution was prepared. In addition, still another BOD solution was prepared by adding, to the BOD enzyme solution, distilled water in place of the activity improving agent or the comparative substance, so that a control (denoted as Without additive in Tables 1 to 3) was prepared. The final concentration of the activity improving agent or the comparative substance in each of the above BOD solutions was shown in “mM” or “percentage (%)” (amount (g) of the activity improving agent or the comparative substance relative to 100 mL of the BOD solution) in Table 1.
Thereafter, one of these BOD solutions and a deoxygenating agent (Anaero Pack manufactured by Mitsubishi Gas Chemical Company, Inc.) were included in one container. Then, the container was sealed, so that a BOD container was prepared. The BOD container was left in an environment at a temperature of 30° C. in a deoxygenated atmosphere for 47 days (Table 2) or 14 days (Table 3). […]

Compound | Activity (%) Day 47 | Activity (%) Day 14 (left 14 days at 30° C.)
O=C1O[C@H]([C@@H](O)CO)C(O)=C1O [L-ascorbic acid] | 151% | 
O=c1[nH]c(=O)c2[nH]c(=O)[nH]c2[nH]1 [Uric acid, uric acid] | 155% | 156%
